Test results taken from patent publication US11807650B2, “NMDA receptor modulators and uses thereof” (Novartis AG, priority 2016, dated 2023).

target: T1, human GRIN1 (transcript variant NR1-3) and GRIN2D expressed in Xenopus oocytes (Homo sapiens, UniProt O15399); test: NR2D oocyte potentiation assay (two-electrode voltage clamp); type: cell-based; conditions: 10 uM test compound; glutamate and glycine 10 μM each; holding potential −40 mV
T1 construct: GenScript (GRIN2D synthesis) SC115601; host or cells: Xenopus oocytes injected with cRNA (1 GluN1 : 2 GluN2)
T1 sequence (O15399 28-1336, other chains not shown): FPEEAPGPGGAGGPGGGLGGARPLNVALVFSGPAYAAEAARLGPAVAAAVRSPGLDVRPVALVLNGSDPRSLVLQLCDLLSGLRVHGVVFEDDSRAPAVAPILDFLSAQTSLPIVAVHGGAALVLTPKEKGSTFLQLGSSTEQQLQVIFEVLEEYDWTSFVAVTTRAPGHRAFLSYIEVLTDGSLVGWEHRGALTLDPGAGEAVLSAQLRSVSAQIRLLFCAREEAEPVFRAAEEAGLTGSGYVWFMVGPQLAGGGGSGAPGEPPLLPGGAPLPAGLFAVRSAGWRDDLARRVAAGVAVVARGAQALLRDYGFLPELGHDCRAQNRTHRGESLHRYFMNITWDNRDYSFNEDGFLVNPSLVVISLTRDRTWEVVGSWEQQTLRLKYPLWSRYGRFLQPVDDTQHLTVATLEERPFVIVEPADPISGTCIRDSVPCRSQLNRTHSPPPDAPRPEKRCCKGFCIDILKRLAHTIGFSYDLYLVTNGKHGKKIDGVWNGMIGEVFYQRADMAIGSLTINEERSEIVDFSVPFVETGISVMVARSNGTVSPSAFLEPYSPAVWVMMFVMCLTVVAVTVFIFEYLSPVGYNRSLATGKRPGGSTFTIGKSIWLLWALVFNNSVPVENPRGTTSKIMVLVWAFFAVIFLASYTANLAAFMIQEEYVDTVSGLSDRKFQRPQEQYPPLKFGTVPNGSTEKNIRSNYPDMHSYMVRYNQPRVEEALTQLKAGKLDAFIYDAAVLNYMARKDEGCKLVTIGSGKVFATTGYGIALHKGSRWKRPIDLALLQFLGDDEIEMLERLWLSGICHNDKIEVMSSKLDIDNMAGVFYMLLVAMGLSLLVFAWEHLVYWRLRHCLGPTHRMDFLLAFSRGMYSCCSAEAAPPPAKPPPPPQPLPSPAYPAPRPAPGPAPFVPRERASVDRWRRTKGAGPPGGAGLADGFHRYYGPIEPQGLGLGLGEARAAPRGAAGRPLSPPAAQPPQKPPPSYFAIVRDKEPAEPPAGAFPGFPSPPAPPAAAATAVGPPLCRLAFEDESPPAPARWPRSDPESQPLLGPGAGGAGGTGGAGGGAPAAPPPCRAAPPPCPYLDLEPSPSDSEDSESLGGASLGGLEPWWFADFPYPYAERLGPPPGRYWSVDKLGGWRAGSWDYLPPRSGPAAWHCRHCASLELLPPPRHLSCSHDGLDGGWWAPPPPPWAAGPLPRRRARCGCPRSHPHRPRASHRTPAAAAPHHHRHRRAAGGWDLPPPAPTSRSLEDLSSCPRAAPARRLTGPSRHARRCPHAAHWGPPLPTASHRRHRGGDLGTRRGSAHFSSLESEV
Experimental: NR2D Oocyte Potentiation Assay. Xenopus oocytes (Xenopus 1, Dexter, Mich.) were initially separated from the lobes of an ovary using surgical forceps; they were then defolliculated by constant agitation at room temperature in OR-2 buffer (82.5 mM NaCl; 2.5 mM KCl; 1 mM MgCl2; 5 mM HEPES; pH 7.4) containing 2 mg/ml collagenase Type 1 (Fisher Scientific, USA) for 1.5-2 hours. The cells were then gently aspirated with a Pasteur pipette to remove the follicular tissue; this was followed by washing three times with OR-2 to remove all traces of collagenase. The oocytes were then washed in ND-96 (96 mM NaCl, 2 mM KCl, 1.8 mM CaCl2, 1 mM MgCl2, 5 mM HEPES, 50 ng/L gentamycin, 100 units/ml penicillin and 100 μg/ml streptomycin; pH 7.6) three times and this was followed by incubation in ND-96 at room temperature with mild agitation for 15 minutes; subsequently they were stored for at least 2 hours at 16° C. before sorting and selection for injection. Oocytes selected for injection were incubated overnight in ND-96 at 16° C.
The human GRIN1 (transcript variant NR1-3 (Origene, SKU #: SC115601, Rockville, Md.) and GRIN2D (NCBI locus NM_000836, sequence optimized and synthesized by GenScript) were linearized and transcribed using the mMessage mMachine kit (Life Technologies) and promoters SP6 (for GluN1) and T7 (for GluN2D). cRNAs were mixed together at a ratio of 1 GluN1:2 GluN2. Each oocyte was injected with 50 nL of cRNA and stored in ND96 (96 mM NaCl, 2 mM KCl, 1.8 mM CaCl2, 1 mM MgCl2, 5 mM HEPES, 50 ng/L gentamycin, 100 units/ml penicillin and 100 μg/ml streptomycin; pH 7.6) at 16° C. for 72 h prior to recording.
Currents were recorded using a two-electrode voltage-clamp amplifier (Oocyte Clamp OC-725C; Warner Instrument Corp, Hamden, Conn.), and digitized using Digidata 1550A and pClamp (v. 10) software (Molecular Devices, Sunnyvale, Calif.). Electrodes were filled with 3 M KCl and had resistances that ranged from 0.2-1 MO. All measurements were made at a holding potential of −40 mV. Cells were continuously perfused with oocyte recording solution containing 90 mM NaCl, 1 mM KCl, 0.5 mM BaCl2, and 10 mM HEPES (Ph 7.4). Glutamate and Glycine (co-agonists) were applied at respective concentrations of 10 μM each. Co-agonists were applied until a plateau was reached, and test compounds were then added in the continued presence of co-agonists until a new plateau was reached. After the addition of the last test compound concentration, the oocyte was washed with oocyte recording buffer. Fraction of current remaining was calculated as [(current in presence of test compound−background current)/(co-agonist current−background current)] and IC50 values were computed using Prism 6.0 (Graphpad).

activation at 10 µM [%] | NR2D Oocyte % Potentiation @ 10 uM | Compound
> 1000 | – | CC(C)(C)c1ncc(-c2nc3n(c(=O)c2C#N)C[C@@H](CO)CS3)cc1F [Example 157, (S)-8-(6-(tert-butyl)-5-fluoropyridin-3-yl)-3-(hydroxymethyl)-6-oxo-3,4-dihydro-2H,6H-pyrimido[2,1-b][1,3]thiazine-7-carbonitrile]
> 1000 | – | CC(C)(C)c1ncc(-c2nc3n(c(=O)c2C#N)CC(CO)CS3)cc1F (stereo not shown) [Example 92, 8-(6-(tert-butyl)-5-fluoropyridin-3-yl)-3-(hydroxymethyl)-6-oxo-3,4-dihydro-2H,6H-pyrimido[2,1-b][1,3]thiazine-7-carbonitrile]
10 to 100 | – | C=Cc1c(-c2ccc(C(C)(C)C)cc2)nc2n(c1=O)CCCS2 [Example 32, 8-(4-(tert-butyl)phenyl)-7-vinyl-3,4-dihydro-2H,6H-pyrimido[2,1-b][1,3]thiazin-6-one]
– | Inhibitor | CC1CSc2nc(-c3ccc(N4CC(C)(C)C4)nc3)c(C#N)c(=O)n2C1 (stereo not shown) [Example 52, 8-(6-(3,3-dimethylazetidin-1-yl)pyridin-3-yl)-3-methyl-6-oxo-3,4-dihydro-2H,6H-pyrimido[2,1-b][1,3]thiazine-7-carbonitrile]
< 10 | – | CC(C)(C)c1ccc(-c2nc3n(c(=O)c2Br)CCCC3)cc1 [Example 13, 3-bromo-2-(4-(tert-butyl)phenyl)-6,7,8,9-tetrahydro-4H-pyrido[1,2-a]pyrimidin-4-one]
> 1000 | – | CC(C)(C)c1ncc(-c2nc3n(c(=O)c2C#N)CCCS3)cc1F [Example 75, 8-(6-(tert-butyl)-5-fluoropyridin-3-yl)-6-oxo-3,4-dihydro-2H,6H-pyrimido[2,1-b][1,3]thiazine-7-carbonitrile]
> 1000 | – | COC[C@H]1CSc2nc(-c3cnc(C(C)(C)C)c(F)c3)c(C#N)c(=O)n2C1 [Example 166, (S)-8-(6-(tert-butyl)-5-fluoropyridin-3-yl)-3-(methoxymethyl)-6-oxo-3,4-dihydro-2H,6H-pyrimido[2,1-b][1,3]thiazine-7-carbonitrile]
100 to 500 | – | CC(C)(C)c1ccc(-c2nc3n(c(=O)c2C#N)CC(C(F)(F)F)CS3)cn1 (stereo not shown) [Example 143, 8-(6-(tert-butyl)pyridin-3-yl)-6-oxo-3-(trifluoromethyl)-3,4-dihydro-2H,6H-pyrimido[2,1-b][1,3]thiazine-7-carbonitrile]
10 to 100 | – | CC(C)(C)c1ccc(-c2nc3n(c(=O)c2C#N)CCCC3)cc1 [Example 23, 2-(4-(tert-butyl)phenyl)-4-oxo-6,7,8,9-tetrahydro-4H-pyrido[1,2-a]pyrimidine-3-carbonitrile]
> 1000 | – | CC(C)(C)c1ccc(-c2nc3n(c(=O)c2C#N)C[C@@H](CF)CS3)cn1 [Example 131, (S)-8-(6-(tert-butyl)pyridin-3-yl)-3-(fluoromethyl)-6-oxo-3,4-dihydro-2H,6H-pyrimido[2,1-b][1,3]thiazine-7-carbonitrile]
100 to 500 | – | CC(C)(C)c1ccc(-c2nc3n(c(=O)c2C#N)C[C@H](CF)CS3)cn1 [Example 132, (R)-8-(6-(tert-butyl)pyridin-3-yl)-3-(fluoromethyl)-6-oxo-3,4-dihydro-2H,6H-pyrimido[2,1-b][1,3]thiazine-7-carbonitrile]
> 1000 | – | CCOC(=O)NCC1CSc2nc(-c3cnc(C(C)(C)C)c(F)c3)c(C#N)c(=O)n2C1 (stereo not shown) [Example 147, ethyl ((8-(6-(tert-butyl)-5-fluoropyridin-3-yl)-7-cyano-6-oxo-3,4-dihydro-2H,6H-pyrimido[2,1-b][1,3]thiazin-3-yl)methyl)carbamate]
500 to 1000 | – | CC(=O)NC[C@H]1CSc2nc(-c3cnc(C(C)(C)C)c(F)c3)c(C#N)c(=O)n2C1 [Example 168, (R)-N-((8-(6-(tert-butyl)-5-fluoropyridin-3-yl)-7-cyano-6-oxo-3,4-dihydro-2H,6H-pyrimido[2,1-b][1,3]thiazin-3-yl)methyl)acetamide]
